The text below walks through data of US7655224B2, “Neural stem cells and use thereof for brain tumor therapy” (priority 1998, dated 2010).

For data set [1], the system named is neural stem cells (clone C17.2). Description: Cell number and growth of neural stem cells under mimosine and GCV. It is filed as cell-based, murine. From the text:
Medium was changed every third day. […] Medium was replaced on day 4 and day 6.
In contrast, untreated neural stem cell cultures continued proliferating over the same period, reaching a density of 1.7×10^6 cells/ml on day 10. […] Re-growth of neural stem cells occurred at a faster rate if cells were additionally rinsed and split 1:8 after removal of drug(s) on day 10.

Data set [2] has the same test system. The experiment in a line: Cytopathic effect and morphology of neural stem cells (drug treatment, virus infection). Conditions: for cell morphology: cells below confluency, mimosine 400 μM. Here is the method:
Neural stem cells were grown in 24-well plates until they reached confluency (approximately 400,000 cells/well). Medium was changed every third day. […] Medium was replaced on day 4 and day 6. […] Cell culture medium was changed again on days 10, 13 and 17. […] Cell morphology and cells/well for different treatment conditions were determined in duplicate on days 0, 4, 7, 10, 13, and 17. The number of cells/well was determined using a Coulter Counter (Coulter Electronics, Hialeah, Fla.).
Virus titers in the conditioned medium—and in some experiments also in cell lysates—were determined by standard plaque tests on Vero cells. […] Also, the influence of the expression of viral proteins VP 16 and ICP6 (RR), mediated by infection with amplicon vectors, on the replication of hrR3 mutant virus was determined at different time points after infection of neural stem cells. Stocks of helper-free packaged amplicons HSV 16. HSVRR and HSVIacZ (100 μl each) were added to the wells on day 7, 10, or 13. Three days later titers of hrR3 in the medium were determined by plaque assay.
The genotype of hrR3 is RR- LacZ^+ [Goldstein and Weller, Virology 166: 141-51, 1988] with the lacZ gene under control of the ICP6 early viral promoter. RRP450 was derived from hrR3 by replacement of the lacZ gene with the cytochrome P450 gene [Chase et al., Nat Biotechnol 16: 444-8, 1998].

For a further data set, the system named is hrR3. Description: Dexamethasone treatment of hrR3-infected, mimosine/GCV-treated neural stem cell cultures. As to conditions: dexamethasone 10^-7 M on day 10; detection level. It is filed as cell-based, HSV-1.

Regarding `Nc1nc(O)c2ncn(COC(CO)CO)c2n1` [GCV, ganciclovir], the cell viability result in data set [1] (5 μM added from day 6, compared to mimosine alone) is recorded as “did not significantly affect cell viability”. Also, in data set [2], the cell morphology result is reported as “did not change this morphology”.

With `C[C@@H]1C[C@H]2[C@@H]3CCC4=CC(=O)C=C[C@]4(C)[C@@]3(F)[C@@H](O)C[C@]2(C)[C@@]1(O)C(=O)CO` [dexamethasone], the “virus titers in the media and cell lysates” value with hrR3 was < 10 pfu/100,000 cells.

As for `NC(Cn1ccc(=O)c(O)c1)C(=O)O` (stereo not drawn) [mimosine], the “treatment time at which block of cell division and viral replication is reversible” value in data set [1] is at least 13 days. For the same compound, the Cells/well entry in data set [1] (400 μM, 4 and 7 days after beginning of treatment) is “around 400,000 cells”. The “cell number of infected cultures kept on treatment” value in data set [1] (infected MOI 1 day 7, day 13 and 17) is listed as “remained at the same cell number”. For the same compound, in data set [1] (removed on day 10), the “growth after removal of drug” value was “growth of neural stem cells resumed”. For the same compound, in data set [2], the “virally induced CPE in presence of drug” value is on record as “prevented virally induced CPE”. Further, the cell morphology result in data set [2] is “developed extensions and a more neuronal shape”. For the same compound, the CPE entry in data set [2] (day 13, infected day 7, split 1:8 into drug-free media day 10) is on record as “some cytopathic effect”; in data set [2] (day 13, infected, not split), “no CPE”; in data set [2] (day 17, infected and split), “extensive CPE”; in data set [2] (day 17, infected, non-split), “some CPE”. Moreover, the “cytopathic effect associated with virus replication” value in data set [2] (infection at MOI of 10) is “typical cytopathic effect”. In data set [2] (uninfected), the “cytopathic effect of drug alone” value is listed as “did not induce a significant cytopathic effect”.
